From patent US9216977B2 (The University of North Carolina at Chapel Hill, priority 2009, dated 2015)
Where two headings read alike, the source gives them in different places.

Legend:
[1] = tested on: A549; assay: in vitro screen against human tumor cell line A549 (lung), GI50; type: cell-based
[2] = tested on: DU145; assay: in vitro screen against human tumor cell line DU-145 (prostate), GI50; type: cell-based
[3] = tested on: KB; assay: in vitro screen against human tumor cell line KB (nasopharyngeal), GI50; type: cell-based; conditions: for GI50: read-out: GI50 KB
[4] = tested on: HCT-8; assay: in vitro screen against human tumor cell line HCT-8 (colon), GI50; type: cell-based
[5] = tested on: KBvin; assay: in vitro screen against KBvin cell line, GI50; type: cell-based
[6] = Homo sapiens, A549, Example 2, Table 3, 13-aza-cryptopleurines, read-out: GI50 A549
[7] = Homo sapiens, DU-145, Example 2, Table 3, 13-aza-cryptopleurines, read-out: GI50 DU145
[8] = Homo sapiens, KB, Example 2, Table 3, 13-aza-cryptopleurines
[9] = Homo sapiens, HCT-8, Example 2, Table 3, 13-aza-cryptopleurines, read-out: GI50 HCT-8
[10] = Example 2, Table 2, 12-aza-antofines, read-out: GI50 A549
[11] = Example 2, Table 2, 12-aza-antofines, read-out: GI50 DU145
[12] = Example 2, Table 2, 12-aza-antofines
[13] = Homo sapiens, KB, Example 3, Table 1
[14] = Homo sapiens, KBVIN, Example 3, Table 1
[15] = Homo sapiens, A549, Example 2, Table 4, 12-aza-cryptopleurines, read-out: GI50 A549
[16] = Homo sapiens, DU-145, Example 2, Table 4, 12-aza-cryptopleurines, read-out: GI50 DU145
[17] = Homo sapiens, KB, Example 2, Table 4, 12-aza-cryptopleurines
[18] = Homo sapiens, HCT-8, Example 2, Table 4, 12-aza-cryptopleurines, read-out: GI50 HCT-8
[19] = Homo sapiens, A549, read-out: GI50 A549
[20] = Homo sapiens, DU-145, read-out: GI50 DU145
[21] = Homo sapiens, HCT-8, read-out: GI50 HCT-8
[22] = Homo sapiens, A549, Example 2, Table 2, 12-aza-antofines, read-out: GI50 A549
[23] = Homo sapiens, DU-145, Example 2, Table 2, 12-aza-antofines, read-out: GI50 DU145
[24] = Homo sapiens, KB, Example 2, Table 2, 12-aza-antofines
[25] = Homo sapiens, HCT-8, Example 2, Table 2, 12-aza-antofines, read-out: GI50 HCT-8
[26] = Homo sapiens, A549, Example 3, Table 1, read-out: GI50 A549
[27] = Homo sapiens, DU-145, Example 3, Table 1, read-out: GI50 DU145

Molecule: COC(=O)CN1CCN2Cc3c(c4cc(OC)c(OC)cc4c4cc(OC)ccc34)C[C@H]2C1 [Compound 8f, (S)-13-aza-13N-methoxycarbonylmethyl-cryptopleurine]
- GI50 [1, 6]: 14.7 µM
- GI50 [2, 7]: 20.8 µM
- GI50 [3, 8]: 14.7 µM
- GI50 [4, 9]: 14 µM
- melting point: 111 to 113 °C

Molecule: COc1ccc2c3c(c4cc(OC)c(OC)cc4c2c1)C[C@H]1CN(Cc2ccccc2)CN1C3 [3a]
- melting point: 113 to 115 °C

Molecule: COc1ccc2c3c(c4cc(OC)c(OC)cc4c2c1)CC1CN(C)CN1C3 (stereo in doubt) [Compound 3k, (R)-12-aza-12N-dimethylamino-antofine]
- GI50 [1, 10]: 4.15 µM
- GI50 [2, 11]: 6.01 µM
- GI50 [3, 12]: 2.38 µM
- GI50 ([5]; Homo sapiens, Table 2, cells marked (KBvin) in the HCT-8 column): 11 µM

Molecule: COc1ccc2c3c(c4cc(OC)c(OC)cc4c2c1)C[C@H]1CCCN1C3 [R-antofine, reference compound]
- GI50 ([1]; Homo sapiens, A549, Example 1, Table 1, read-out: A549 GI50): 0.022 µM
- KB GI50 ([3]; Example 1, Table 1): 0.036 µM
- GI50 [3, 13]: 0.036 µM
- GI50 [5, 14]: 0.025 µM

Molecule: COc1ccc2c3c(c4cc(OC)c(OC)cc4c2c1)C[C@H]1CN(CCO)CCN1C3 [Compound 8j, (S)-13-aza-13N-hydroxylethyl-cryptopleurine]
- GI50 [1, 6]: 14.1 µM
- GI50 [2, 7]: 12.6 µM
- GI50 [3, 8]: 8.62 µM
- GI50 [4, 9]: 7.41 µM
- melting point: 266 °C (dec.)

Molecule: COC(=O)N1CCN2Cc3c(c4cc(OC)c(OC)cc4c4cc(OC)ccc34)C[C@H]2C1 [Compound 8c, (S)-13-aza-13N-methoxycarbonyl-cryptopleurine]
- GI50 [1, 6]: 10.9 µM
- GI50 [2, 7]: 12.2 µM
- GI50 [3, 8]: 11.3 µM
- GI50 [4, 9]: 12.1 µM
- melting point: 99 to 101 °C

Molecule: COc1ccc2c3c(c4cc(OC)c(OC)cc4c2c1)C[C@H]1CCN(CCO)CN1C3 [Compound 11a, (S)-12-aza-12N-hydroxylethyl-cryptopleurine]
- GI50 [1, 15]: 5.68 µM
- GI50 [2, 16]: 1.99 µM
- GI50 [3, 17]: 1.59 µM
- GI50 [4, 18]: 10.7 µM
- melting point: 138 to 140 °C

Molecule: COc1ccc2c3c(c4cc(OC)c(OC)cc4c2c1)C[C@H]1CN(CCc2ccccc2)CN1C3 [Compound 3d, (S)-12-aza-12N-phenylethylenyl-antofine]
- GI50 [1, 19]: 6.62 µM
- GI50 [2, 20]: 10.2 µM
- GI50 ([3]; Homo sapiens, KB): 10 µM
- GI50 [4, 21]: 7.47 µM
- melting point: 85 to 87 °C

Molecule: (S)-12-aza-12N-phenyl-cryptopleurine [Compound 11b]
- GI50 ([1]; read-out: GI50 A549): > 40 µM
- GI50 ([2]; read-out: GI50 DU145): > 40 µM
- GI50 [3]: >40 µM
- GI50 ([4]; read-out: GI50 HCT-8): 28.4 µM

Molecule: COc1ccc2c3c(c4cc(OC)c(OC)cc4c2c1)C[C@H]1CN(C2CC2)CN1C3 [Compound 3g, (S)-12-aza-12N-cyclopropyl-antofine]
- GI50 [1, 22]: 1.8 µM
- GI50 [2, 23]: 3.7 µM
- GI50 [3, 24]: 2.71 µM
- GI50 [4, 25]: 1.85 µM
- melting point: 204 to 206 °C

Molecule: COc1ccc2c3c(c4cc(OC)c(OC)cc4c2c1)C[C@H]1CN(C)CN1C3 [Compound 3i, (S)-12-aza-12N-dimethylamino-antofine]
- GI50 [1, 10]: 1.67 µM
- GI50 [2, 11]: 2.26 µM
- GI50 [3, 12]: 2.31 µM
- GI50 ([4]; Example 2, Table 2, 12-aza-antofines, read-out: GI50 HCT-8): 2.01 µM

Molecule: COc1ccc2c3c(c4cc(OC)c(OC)cc4c2c1)C[C@H]1CCN(Cc2ccccc2)CN1C3 [Compound 11d, (S)-12-aza-12N-benzyl-cryptopleurine]
- GI50 [1, 15]: 29.9 µM
- GI50 [2, 16]: > 40 µM
- GI50 [3, 17]: > 40 µM
- GI50 [4, 18]: 21.3 µM
- melting point: 211 to 213 °C

Molecule: COc1ccc2c3c(c4cc(OC)c(OC)cc4c2c1)C[C@H]1CN(C(=O)c2ccccc2)CCN1C3 [Compound 8i, (S)-13-aza-13N-benzoyl-cryptopleurine]
- GI50 [1, 6]: 15 µM
- GI50 [2, 7]: 15.7 µM
- GI50 [3, 8]: 20.1 µM
- GI50 [4, 9]: 18.1 µM
- melting point: 203 °C (dec.)

Molecule: COc1ccc2c3c(c4cc(OC)c(OC)cc4c2c1)C[C@H]1CN(C(C)=O)CCN1C3 [Compound 8d, (S)-13-aza-13N-acetyl-cryptopleurine]
- GI50 [1, 19]: 11.7 µM
- GI50 [2, 20]: 11.9 µM
- GI50 ([3]; Homo sapiens, KB): 15.5 µM
- GI50 [4, 21]: 13.8 µM
- melting point: 123 to 125 °C

Molecule: (14R,14aS)-11-oxo-14-hydroxyl-cryptopleurine [Compound 21b]
- GI50 ([1]; read-out: GI50 A549): 0.069 µM
- GI50 ([2]; read-out: GI50 DU145): 0.2 µM
- GI50 [3]: 0.30 µM
- GI50 [5]: 0.12 µM

Molecule: COc1ccc2c3c(c4cc(OC)c(OC)cc4c2c1)C[C@H]1CNCCN1C3.Cl.Cl [Compound 8a, (S)-13-aza-cryptopleurine dihydrochloride]
- GI50 ([1]; read-out: GI50 A549): 1.73 µM
- GI50 ([2]; read-out: GI50 DU145): 2.08 µM
- GI50 [3]: 1.79 µM
- GI50 ([4]; read-out: GI50 HCT-8): 1.62 µM

Molecule: COc1ccc2c3c(c4cc(OC)c(OC)cc4c2c1)C[C@H]1C[C@@H](OC)CCN1C3 [Compound 26a, (13S,14aS)-13-methoxy-cryptopleurine]
- GI50 [1, 26]: 7.11 µM
- GI50 [2, 27]: 3.57 µM
- GI50 [3, 13]: 5.24 µM
- GI50 [5, 14]: 3.69 µM

Molecule: COc1ccc2c(c1)c1c(c3cc(OC)c(OC)cc32)C[C@H]2CCN(C3CC3)CN2C1 [Compound 11e, (S)-12-aza-12N-cyclopropyl-cryptopleurine]
- GI50 ([1]; read-out: GI50 A549): 4.3 µM
- GI50 ([2]; read-out: GI50 DU145): 14.3 µM
- GI50 [3]: 11.47 µM
- GI50 ([4]; read-out: GI50 HCT-8): 5.73 µM

Molecule: CC[C@@]1(O)CCN2Cc3c(c4cc(OC)c(OC)cc4c4cc(OC)ccc34)C[C@H]2C1 [Compound 25, (13R,14aS)-13-ethyl-13-hydroxyl-cryptopleurine]
- GI50 [1, 26]: 0.99 µM
- GI50 [2, 27]: 0.77 µM
- GI50 [3, 13]: 0.92 µM
- GI50 [5, 14]: 0.87 µM

Molecule: COc1ccc2c3c(c4cc(OC)c(OC)cc4c2c1)C[C@H]1CN(CCO)CN1C3 [Compound 3e, (S)-12-aza-12N-hydroxylethyl-antofine]
- GI50 [1, 22]: 4.41 µM
- GI50 [2, 23]: 6.36 µM
- GI50 [3, 24]: 7.83 µM
- GI50 [4, 25]: 10.8 µM
- melting point: 210 to 212 °C

Molecule: CCCN1C[C@@H]2Cc3c(c4ccc(OC)cc4c4cc(OC)c(OC)cc34)CN2C1 [Compound 3c, (S)-12-aza-12N-propyl-antofine]
- GI50 [1, 22]: 3.94 µM
- GI50 [2, 23]: 7.38 µM
- GI50 [3, 24]: 6.64 µM
- GI50 [4, 25]: 2.71 µM
- melting point: 155 to 157 °C

Molecule: COc1ccc2c3c(c4cc(OC)c(OC)cc4c2c1)C[C@H]1CCN(C)CN1C3 [Compound 11f, (S)-12-aza-12N-dimethylamino-cryptopleurine]
- GI50 [1, 15]: 1.78 µM
- GI50 [2, 16]: 2.97 µM
- GI50 [3, 17]: 3.08 µM
- GI50 [4, 18]: 2.37 µM

Molecule: COc1ccc2c3c(c4cc(OC)c(OC)cc4c2c1)C[C@H]1[C@H](O)CCN1C3 [Compound 3b]
- GI50 [1, 26]: 0.27 µM
- GI50 [2, 27]: 0.85 µM
- GI50 [3, 13]: 0.5 µM
- GI50 [5, 14]: 0.64 µM

Molecule: (14S,14aS)-11-oxo-14-hydroxyl-cryptopleurine [Compound 21a]
- GI50 ([1]; read-out: GI50 A549): 0.01 µM
- GI50 ([2]; read-out: GI50 DU145): 0.033 µM
- GI50 [3]: 0.025 µM
- GI50 [5]: 0.025 µM

Molecule: COc1ccc2c3c(c4cc(OC)c(OC)cc4c2c1)C[C@H]1CN(CC(C)C)CN1C3
- melting point: 93 to 95 °C

Molecule: COc1ccc2c3c(c4cc(OC)c(OC)cc4c2c1)C[C@H]1C[C@@H](O)[C@H](O)CN1C3 [Compound 24b, (12R,13R,14aS)-12,13-dihydroxyl-cryptopleurine]
- GI50 [1, 26]: 14.5 µM
- GI50 [2, 27]: 17.1 µM
- GI50 [3, 13]: 17.5 µM
- GI50 [5, 14]: 12.6 µM

Molecule: COc1ccc2c3c(c4cc(OC)c(OC)cc4c2c1)C[C@H]1[C@@H](O)CCN1C3 [Compound 3a]
- GI50 [1, 26]: 2.81 µM
- GI50 [2, 27]: 3.2 µM
- GI50 [3, 13]: 1.83 µM
- GI50 [5, 14]: 3.42 µM

Molecule: COC1=C[C@@H]2Cc3c(c4ccc(OC)cc4c4cc(OC)c(OC)cc34)CN2C1 [Compound 7, (S)-12-methoxy-antofine-12-ene]
- GI50 ([1]; read-out: GI50 A549): 5.97 µM
- GI50 ([2]; read-out: GI50 DU145): 10.3 µM
- GI50 [3]: 12.00 µM
- GI50 ([4]; read-out: GI50 HCT-8): 3.56 µM
- GI50 [5]: 2.64 µM

Molecule: COc1ccc2c3c(c4cc(OC)c(OC)cc4c2c1)C[C@H]1C[C@H](OC)CCN1C3 [Compound 26b, (13R,14aS)-13-methoxy-cryptopleurine]
- GI50 [1, 26]: 0.025 µM
- GI50 [2, 27]: 0.056 µM
- GI50 [3, 13]: 0.1 µM
- GI50 [5, 14]: 0.066 µM

Molecule: COc1ccc2c3c(c4cc(OC)c(OC)cc4c2c1)C[C@H]1CN(S(C)(=O)=O)CCN1C3 [Compound 8e, (S)-13-aza-13N-methylsulfonyl-cryptopleurine]
- GI50 ([1]; read-out: GI50 A549): 14.5 µM
- GI50 ([2]; read-out: GI50 DU145): 17 µM
- GI50 [3]: 17.52 µM
- GI50 ([4]; read-out: GI50 HCT-8): 17.8 µM

Molecule: COc1ccc2c3c(c4cc(OC)c(OC)cc4c2c1)C[C@H]1C[C@H](O)[C@@H](O)CN1C3 [Compound 24a, (12S,13S,14aS)-12,13-dihydroxyl-cryptopleurine]
- GI50 [1, 26]: 0.55 µM
- GI50 [2, 27]: 0.6 µM
- GI50 [3, 13]: 0.84 µM
- GI50 [5, 14]: 2.17 µM
